Source: US20230263826A1, “Compositions and Methods for Treatment and Prevention of Type 1 Diabetes” (The UAB Research Foundation, priority 2021, published 2023)

System: female NOD mice
Experiment: Plasma lipidomics in FKGK18- and PBS-T-treated NOD mice that developed T1D
Assay type: in vivo, mouse
Details: treatment initiated at 10 days or 4 weeks of age
Procedure: FIGS. 11A-11I show a comparison of select plasma lipids in diabetic NOD mice. NOD mice were treated with PBS-Tor with FKGK18, starting at 10 days or 4 weeks of age, and sacrificed at the onset of diabetes. Plasma was prepared from these mice and processed for lipidomics analyses. The data (mean±SEM) represent pmol of each lipid species in 100 or 50 µL plasma fo LTC4 (FIG. 11A), 15-HETE (FIG. 11B), 5-HETE (FIG. 11C), PGD2 (FIG. 11D), AA (FIG. 11E), So1P/So (FIG. 11F), EET/DHET (FIG. 11G), resolving D2 (FIG. 11H), and DHA (FIG. 11I). (Statistical analyses: Students′ t-test. N=4/group.).
Next, to determine if a proinflammatory landscape persists until T1D onset, Applicants performed lipidomic analyses with plasma from FKGK18- and PBS-T-treated NOD (starting at 10 days). […] Furthermore, the ratio of So1P/So was higher in diabetic PBS-T-NOD, in comparison with nondiabetic PBS-T- or FKGK18-treated NOD (FIG. 6F). […]
Analysis of sphingolipids, eicosanoids, and fatty acids by ultra performance liquid chromatography-electrospray ionization-tandem mass spectrometry. […] Sphingolipids, eicosanoids, and fatty acids were analyzed via mass spectrometry using an AB Sciex Triple Quad 5500 Mass Spectrometer. […] The MΦ (2.75 × 10^6) were administered i.p. to 8-week-old female NOD, and diabetes incidence was recorded through weekly blood glucose monitoring.

O=C(CCCCc1ccc2ccccc2c1)C(F)(F)F [FKGK18]
plasma PGD2 relative to PBS-T (d) groups (mice that developed T1D): decrease
plasma lipids vs PBS-T in mice that developed T1D (sacrificed at onset of diabetes, all lipids except PGD2): no differences
